The source made the active and inactive calls. The rule behind the calls is not given here.
How the values were obtained:
Assay in all cases: CXCR6 receptor antagonists, dose response, cell-based, beta-arrestin, DiscoveRx, APJ panel, uHTS hits (AID 624129)
[1] = target: Beta-galactosidase (Escherichia coli) (UniProt Q8VNN2); settings: CXCR6 beta-arrestin (DiscoveRx) antagonist cell assay, b-galactosidase
[2] = target: Apelin receptor (Homo sapiens) (UniProt P35414); settings: CXCR6 beta-arrestin (DiscoveRx) antagonist cell assay, APJ
[3] = target: C-X-C chemokine receptor type 6 (Homo sapiens) (UniProt O00574); settings: CXCR6 beta-arrestin (DiscoveRx) antagonist cell assay; for inhibition: CXCR6, run 1, dose range 2, at 80 µM (top of the series)
C-X-C chemokine receptor type 6 (Homo sapiens), sequence (O00574 whole entry, looked up): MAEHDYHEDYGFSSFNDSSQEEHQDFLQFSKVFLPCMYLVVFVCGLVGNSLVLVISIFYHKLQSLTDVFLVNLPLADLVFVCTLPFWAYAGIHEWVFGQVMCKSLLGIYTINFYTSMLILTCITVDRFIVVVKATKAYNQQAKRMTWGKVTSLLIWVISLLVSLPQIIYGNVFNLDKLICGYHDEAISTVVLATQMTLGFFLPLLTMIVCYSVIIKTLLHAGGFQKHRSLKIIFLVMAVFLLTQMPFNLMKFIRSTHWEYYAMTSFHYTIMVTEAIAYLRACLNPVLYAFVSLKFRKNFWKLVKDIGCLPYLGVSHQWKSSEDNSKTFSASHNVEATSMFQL

[4] = target: C-C chemokine receptor type 6 (Homo sapiens) (UniProt P51684); settings: CXCR6 beta-arrestin (DiscoveRx) antagonist cell assay
[5] = dose range 1, mean IC50 across replicates
[6] = CXCR6, dose range 1, mean IC50 across replicates
[7] = CCR6, dose range 1, mean IC50 across replicates

Beta-galactosidase (Escherichia coli), sequence (Q8VNN2 whole entry, looked up): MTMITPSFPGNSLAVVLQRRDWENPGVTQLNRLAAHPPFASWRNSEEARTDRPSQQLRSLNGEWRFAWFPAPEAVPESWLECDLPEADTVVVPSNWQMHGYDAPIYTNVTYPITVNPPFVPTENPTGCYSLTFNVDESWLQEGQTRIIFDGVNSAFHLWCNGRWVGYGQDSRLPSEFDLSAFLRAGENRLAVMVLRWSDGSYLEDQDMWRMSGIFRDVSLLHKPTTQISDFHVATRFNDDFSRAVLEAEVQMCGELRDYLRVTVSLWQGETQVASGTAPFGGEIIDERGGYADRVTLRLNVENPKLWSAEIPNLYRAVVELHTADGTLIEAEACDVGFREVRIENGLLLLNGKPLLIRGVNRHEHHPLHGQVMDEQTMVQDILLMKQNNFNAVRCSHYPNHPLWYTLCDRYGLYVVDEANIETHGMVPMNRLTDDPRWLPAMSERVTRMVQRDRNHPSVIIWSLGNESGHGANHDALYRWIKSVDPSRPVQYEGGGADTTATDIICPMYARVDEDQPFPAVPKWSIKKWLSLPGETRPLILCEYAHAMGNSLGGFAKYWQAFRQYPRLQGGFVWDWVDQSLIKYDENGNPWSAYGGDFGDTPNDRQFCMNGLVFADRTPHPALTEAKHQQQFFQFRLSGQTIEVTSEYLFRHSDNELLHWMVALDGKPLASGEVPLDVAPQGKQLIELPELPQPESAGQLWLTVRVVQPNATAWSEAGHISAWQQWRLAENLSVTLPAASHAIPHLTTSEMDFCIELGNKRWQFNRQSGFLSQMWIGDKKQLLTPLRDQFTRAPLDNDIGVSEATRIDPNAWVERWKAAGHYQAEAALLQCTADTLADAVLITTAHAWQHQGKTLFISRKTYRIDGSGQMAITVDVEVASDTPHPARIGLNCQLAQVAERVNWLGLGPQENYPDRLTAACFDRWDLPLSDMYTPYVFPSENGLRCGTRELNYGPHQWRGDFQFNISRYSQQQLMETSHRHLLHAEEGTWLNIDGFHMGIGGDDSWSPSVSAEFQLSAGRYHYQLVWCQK

IC50 ([1]; dose range 1)	IC50 [1, 5]	IC50 ([2]; dose range 1)	IC50 [2, 5]	IC50 ([2]; run 2, dose range 1)	IC50 ([2]; run 3, dose range 1)	IC50 ([3]; CXCR6, dose range 1)	IC50 [3, 6]	inhibition [3]	IC50 ([3]; CXCR6, run 2, dose range 1)	IC50 ([4]; CCR6, dose range 1)	IC50 [4, 7]	IC50 ([4]; CCR6, run 2, dose range 1)	IC50 ([3]; CXCR6, run 1, dose range 2)	IC50 ([3]; CXCR6, run 2, dose range 2)	Structure (SMILES)
> 80 µM (inactive)	> 80 µM	47.2 µM	49.4 µM	51.5 µM	> 80 µM	inactive	51.9 µM	75.8%	61.5 µM	69.3 µM	62.5 µM	55.8 µM	–	–	COc1ccc([N+](=O)[O-])c(S(=O)(=O)c2ccc(Cl)cc2)n1
> 80 µM (inactive)	> 80 µM	17 µM	18.7 µM	18.8 µM	20.2 µM	inactive	12.5 µM	117%	10.1 µM	10.8 µM	11.7 µM	12.5 µM	–	–	C=CS(=O)(=O)c1c2cc(OC)ccc2nc2ccc(OC)cc12
> 80 µM (inactive)	> 80 µM	16.4 µM	29.4 µM	42.5 µM	> 80 µM	inactive	22.2 µM	116%	> 80 µM	16.2 µM	21.7 µM	27.1 µM	–	–	Cn1c(=O)c([N+](=O)[O-])c(Cl)c2ccccc21
> 80 µM (inactive)	> 80 µM	21.5 µM	19.7 µM	17.5 µM	20.1 µM	> 80 µM (inactive)	> 80 µM	118%	> 80 µM	11.5 µM	11.5 µM	11.6 µM	–	–	O=[N+]([O-])c1ccc(Sc2cccc[n+]2[O-])c2nonc12
29.8 µM	29.8 µM	9.71 µM	8.18 µM	7.17 µM	7.67 µM	6.36 µM	6.45 µM	–	6.05 µM	5.52 µM	5.34 µM	5.16 µM	7.34 µM	6.06 µM	CC(=O)OCCNc1cc(Sc2nc3ccccc3[nH]2)c2nonc2c1[N+](=O)[O-]
> 80 µM (inactive)	> 80 µM	4.63 µM	5.01 µM	5.47 µM	4.92 µM	4.5 µM	3.54 µM	129%	2.58 µM	2.2 µM	2.6 µM	3 µM	–	–	Cc1ccnc(N2C(=O)c3cccc4c([N+](=O)[O-])ccc(c34)C2=O)c1
15.9 µM	15.9 µM	6.78 µM	6.28 µM	5.42 µM	6.63 µM	4.95 µM	4.83 µM	–	4.89 µM	2.79 µM	3.11 µM	3.43 µM	5.13 µM	4.35 µM	O=Cc1s/c(=N\S(=O)(=O)c2ccccc2)n(CCCCl)c1Cl
> 80 µM (inactive)	> 80 µM	16.6 µM	19.4 µM	21.1 µM	20.4 µM	inactive	12.1 µM	126%	9.21 µM	11.4 µM	11.5 µM	11.6 µM	–	–	CCO[C@@H]1OC(C(=O)N2CCN(Cc3ccccc3)CC2)=C[C@H](c2ccc(Br)cc2)[C@H]1CCCO
> 80 µM (inactive)	> 80 µM	7.82 µM	7.15 µM	6.41 µM	7.21 µM	7.4 µM	8.21 µM	–	7.89 µM	5.88 µM	5.71 µM	5.55 µM	8.3 µM	9.26 µM	CCS(=O)(=O)c1ncc(Cl)c(C(=O)Nc2ccc(S(=O)(=O)N3CCC(C)CC3)cc2)n1
> 80 µM (inactive)	> 80 µM	48.2 µM	46.8 µM	45.4 µM	> 80 µM	inactive	19 µM	–	46.1 µM	9.63 µM	10.1 µM	10.6 µM	7.2 µM	10.3 µM	O=C(Nc1nccs1)c1sc2cc(Cl)ccc2c1Cl
> 80 µM (inactive)	> 80 µM	–	> 80 µM	> 80 µM	> 80 µM	> 80 µM (inactive)	> 80 µM	-25.6%	> 80 µM	–	> 80 µM	> 80 µM	–	–	Cc1cc(C)c2ccc(N)nc2c1O

Reference: PubChem BioAssay AID624129 (Sanford-Burnham Center for Chemical Genomics, 2012)
